The source of these data is US9296741B2, “Bromodomain inhibitors” (priority 2012, dated 2016).

Data set [1] deals with OPM-2 human multiple myeloma xenograft tumors. In words: animal or person. The note with it: Mus musculus.
Data set [2] is described as follows: Human liver microsome stability assay. The note with it: both sexes, human, microsomes, pH 7.4. It counts as in vitro ADME. For orientation: Liver microsomes are a subcellular fraction often used to study metabolism.
A short description of data set [3]: Rat liver microsome stability assay. The note with it: rat liver microsomes (male Sprague-Dawley), 0.5 μM test compound, 0.25 mg/mL microsomal protein, pH 7.4, 37° C.; read-out: Stability in rat liver microsomes (t1/2 in minutes). The format is in vitro ADME.
In data set [4] the test system is breast cancer cell line MX-1. Kind of data set: MX-1 cell line proliferation assay. Conditions: Homo sapiens, MX1, 72 h; MX-1 cells, 3-day proliferation, Cell Titer Glo; read-out: Cellular proliferation: EC50. It counts as cell-based, human.
Data set [5] concerns the target human BRD4 first bromodomain (BDI_K57-E168) (Homo sapiens (Human), UniProt O60885). In words: TR-FRET bromodomain binding assay, BRD4 first bromodomain. Background: TR-FRET usually uses a lanthanide donor and a delayed reading to cut background.
The nature of data set [6]: Mouse liver microsome stability assay. The note with it: male, CD1, mouse, microsomes, pH 7.4. The format is in vitro ADME.
Data set [7] concerns the target human BRD4 second bromodomain (BDII_E352-M457) (Homo sapiens (Human), UniProt O60885). Kind of data set: TR-FRET bromodomain binding assay, BRD4 second bromodomain.
Data set [8] has as its system LPS induced IL-6 production. Kind of data set: LPS (lipopolysaccharide) induced IL-6 production mouse assay. The format is in vivo. Conditions: Mus musculus, read-out: Inhibition of LPS induced IL-6 production in Mice, % inhibition at 3 mg/kg; 3 mg/kg oral, 1 h before LPS; serum IL-6 2 h after LPS.

With `CNS(=O)(=O)c1ccc(OCC2CC2)c(-c2cn(C)c(=O)c3[nH]ccc23)c1` [Example 250, 4-(cyclopropylmethoxy)-N-methyl-3-(6-methyl-7-oxo-6,7-dihydro-1H-pyrrolo[2,3-c]pyridin-4-yl)benzenesulfonamide], the change in vivo at 3 mg/kg in data set [1] (OPM-2, po, read-out: % TGD (tumor growth delay), OPM-2, 3 mg/kg/day, PO, QDx21, vehicle A) was 29%. In addition, the inhibition in vivo at 3 mg/kg in data set [1] (OPM-2, po, read-out: % TGI (tumor growth inhibition), OPM-2, 3 mg/kg/day, PO, QDx21, vehicle A) was 42%. Moreover, the half-life at 0.5 μM in data set [2] amounted to 56 min; in data set [3], 36 min; in data set [6] it was 37 min. Moreover, in data set [4], the EC50 was determined as 18 nM. Moreover, the Ki in data set [5] and in data set [7] was 1.5 nM throughout.

On to `CC(C)C[C@H](NC(=O)[C@H](Cc1ccccc1)NC(=O)c1cnccn1)B(O)O` [Bortezomib], for which the change in vivo at 1 mg/kg in data set [1] (OPM-2, iv, read-out: % TGD (tumor growth delay), OPM-2, 1 mg/kg/day, IV, Q4Dx3, vehicle B) is 93%. Besides, the inhibition in vivo at 1 mg/kg in data set [1] (OPM-2, iv, read-out: % TGI (tumor growth inhibition), OPM-2, 1 mg/kg/day, IV, Q4Dx3, vehicle B) came out at 80%.

Consider `CCS(=O)(=O)c1ccc(O[C@H]2CC[C@H](OC)CC2)c(-c2cn(C)c(=O)c3[nH]ccc23)c1` [Example 260, 4-{5-(ethylsulfonyl)-2-[(trans-4-methoxycyclohexyl)oxy]phenyl}-6-methyl-1,6-dihydro-7H-pyrrolo[2,3-c]pyridin-7-one], for which the half-life at 0.5 μM in data set [2] is 34 min; in data set [3], 58 min; in data set [6], 29 min. Also, the inhibition in vivo at 3 mg/kg in data set [8] is 66%. Moreover, in data set [4], the EC50 was 6.3 nM. The Ki – broadly, the equilibrium dissociation constant of an inhibitor or competing ligand from its target – in data set [5] came out at 1 nM; in data set [7], 1.2 nM.

Turning to `Cn1cc(-c2cc(NS(C)(=O)=O)ccc2Oc2ccc(F)cc2Cl)c2cc[nH]c2c1=O` [Example 34, N-[4-(2-chloro-4-fluorophenoxy)-3-(6-methyl-7-oxo-6,7-dihydro-1H-pyrrolo[2,3-c]pyridin-4-yl)phenyl]methanesulfonamide], the results for the half-life at 0.5 μM in data set [2], in data set [3] and in data set [6] were 37 min, 42 min and 35 min, respectively. Also, the inhibition in vivo at 3 mg/kg in data set [8] came out at 78%. For the same compound, in data set [4], the EC50 came out at 26.8 nM. Further, the results for the Ki in data set [5] and in data set [7] were 3.5 nM and 2.1 nM, respectively.

In the case of `CC(O)c1cc2c(-c3cc(S(C)(=O)=O)ccc3Oc3ccc(F)cc3F)cn(C)c(=O)c2[nH]1` (stereo not drawn) [Example 278, 4-[2-(2,4-difluorophenoxy)-5-(methylsulfonyl)phenyl]-2-(1-hydroxyethyl)-6-methyl-1,6-dihydro-7H-pyrrolo[2,3-c]pyridin-7-one], the half-life at 0.5 μM in data set [2], in data set [3] and in data set [6] was > 120 min each time. For the same compound, the inhibition in vivo at 3 mg/kg in data set [8] was found to be 51%. Moreover, the EC50 in data set [4] was found to be 135 nM. In addition, the Ki was 12.1 nM in data set [5] and 11.2 nM in data set [7].

As to `Cn1cc(-c2cc(S(C)(=O)=O)ccc2Oc2cccc(N)c2)c2cc[nH]c2c1=O` [Example 166, 4-[2-(3-aminophenoxy)-5-(methylsulfonyl)phenyl]-6-methyl-1,6-dihydro-7H-pyrrolo[2,3-c]pyridin-7-one], the half-life at 0.5 μM in data set [2] was determined as 85 min; in data set [3] it was 23 min; in data set [6], 22 min. Moreover, the inhibition in vivo at 3 mg/kg in data set [8] came out at 44%. Besides, the EC50 in data set [4] worked out at 48.2 nM. For the same compound, the Ki in data set [5] was 10.9 nM; in data set [7], 3.6 nM.

`Cn1cc(-c2cc(NS(C)(=O)=O)ccc2Oc2cccnc2)c2cc[nH]c2c1=O` [Example 11, N-[3-(6-methyl-7-oxo-6,7-dihydro-1H-pyrrolo[2,3-c]pyridin-4-yl)-4-(pyridin-3-yloxy)phenyl]methanesulfonamide]: the half-life at 0.5 μM in data set [2] was 48 min; in data set [3], 19 min; in data set [6], 27 min. Also, the inhibition in vivo at 3 mg/kg in data set [8] came to 34%. Besides, the EC50 in data set [4] came to 34.2 nM. The inhibition constant Ki in data set [5] was found to be 1.8 nM; in data set [7], 2.4 nM.
